Here are results for one compound from publication PMC10970644, “Molecular Pharmacology of Gelsemium Alkaloids on Inhibitory Receptors” (International Journal of Molecular Sciences, 2024).

Entries after “also recorded” stand apart in the source; their conditions may differ.

For one data set, the target named is T1, α1 GlyR (Rattus norvegicus, UniProt P07727).
T1 construct: expressed in transfected cells; host or cells: HEK293 (ATCC CRL-1573)
T1 sequence (P07727 29-457): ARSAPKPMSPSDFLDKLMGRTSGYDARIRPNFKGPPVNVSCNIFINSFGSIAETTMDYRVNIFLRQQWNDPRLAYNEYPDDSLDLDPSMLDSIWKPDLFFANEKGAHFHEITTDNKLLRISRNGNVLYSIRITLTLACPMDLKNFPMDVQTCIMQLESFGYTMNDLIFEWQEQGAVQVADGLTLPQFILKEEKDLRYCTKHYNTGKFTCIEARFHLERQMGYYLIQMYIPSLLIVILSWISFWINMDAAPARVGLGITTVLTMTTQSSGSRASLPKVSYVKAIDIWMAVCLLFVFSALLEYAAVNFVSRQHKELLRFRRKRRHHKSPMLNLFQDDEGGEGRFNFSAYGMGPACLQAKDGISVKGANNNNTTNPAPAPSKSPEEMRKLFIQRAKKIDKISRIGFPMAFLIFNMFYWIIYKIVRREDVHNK
In words: cell-based. The format is cell-based. As to the method: (§1) The cells were transfected with plasmids encoding the following proteins: (i). rat GlyR α (1, 2, 3) subunits alone or combined with rat β subunits (Uniprot Accession Numbers: Q546L7, P22771, P20236, P20781); and (ii). rat GABAAR α1 combined with rat β2 and γ2 subunits (Uniprot Accession Numbers: P62813, P63138, P18508). The EGFP expression was used as a marker of successful protein expression. The transfection was performed using Lipofectamine 2000 (Invitrogen, ThermoFisher, Carlsbad, CA, USA) using the fabricant protocol. The plasmids used to express GlyRs and GABAARs have been previously described. To track the successful expression of GlyR β subunits and the GABAA γ2 or β2 subunit, these proteins were subcloned in the pIRES2-EGFP vector. The transfection ratio to obtain β-containing GlyRs was 1:5 of α:β, while the expression of γ2-containing GABAA receptors was 1:2:5 of α:β:γ2 [14, 15]. Chimeric GlyRs were described in a previous report. Site directed mutagenesis was performed by Charm Gene Science Mutagenex LLC. (Cumming, GA, USA). All the constructs were checked by full-length sequencing (SNPSaurus, Eugene, OR, USA).
(§2) In brief, patch electrodes (3–4 MΩ) were pulled from borosilicate glasses in a PC-100 puller (Narishige, Tokyo, Japan); then, they were filled with an intracellular solution, which contained (in mM) 120 CsCl, 8 EGTA, 10 HEPES (pH 7.4), 4 MgCl2, 0.5 GTP, and 2 ATP. The extracellular solution contained (in mM) 140 NaCl, 5.4 KCl, 2.0 CaCl2, 1.0 MgCl2, 10 HEPES (pH 7.4), and 10 glucose. Whole-cell patch-clamp recordings were performed at −60 mV with an Axoclamp 200B (Molecular Devices, Sunnyvale, CA, USA) or with HEKA EPC-10 (HEKA Elektronik GmbH, Reutlingen, Germany) amplifiers. […] Brief (3–5 s) pulses of agonist together with alkaloids were applied to cells. Stock solutions of the alkaloids were prepared in high purity distilled water. Aliquots of these stock solutions were diluted in reservoirs containing extracellular solution. […] The concentration–response curve parameters for the alkaloid inhibition (IC50, nH, and the maximal current inhibition) were obtained from the fitted curve of normalized concentration–response data points to the equation Iagonist = Imax (agonist)nH/((agonist)nH + (EC50)nH). The IC50 curves are best-fit mean ± SE from pooled data. […] The inhibition constant (Ki) was calculated using the Cheng–Prusoff equation (Ki = IC50/((2 + ([Agonist]/EC50)^nH)^1/nH − 1). The concentration of agonist corresponds to the sub-saturating agonist concentration used to obtain the IC50 for each alkaloid on a given GlyR subtype.

The target of another data set is T2, α2 GlyR (Rattus norvegicus, UniProt P22771).
T2 construct: The cells were transfected with plasmids encoding the following proteins; expressed in transfected cells; host or cells: HEK293 (ATCC CRL-1573)
T2 sequence (P22771 28-452): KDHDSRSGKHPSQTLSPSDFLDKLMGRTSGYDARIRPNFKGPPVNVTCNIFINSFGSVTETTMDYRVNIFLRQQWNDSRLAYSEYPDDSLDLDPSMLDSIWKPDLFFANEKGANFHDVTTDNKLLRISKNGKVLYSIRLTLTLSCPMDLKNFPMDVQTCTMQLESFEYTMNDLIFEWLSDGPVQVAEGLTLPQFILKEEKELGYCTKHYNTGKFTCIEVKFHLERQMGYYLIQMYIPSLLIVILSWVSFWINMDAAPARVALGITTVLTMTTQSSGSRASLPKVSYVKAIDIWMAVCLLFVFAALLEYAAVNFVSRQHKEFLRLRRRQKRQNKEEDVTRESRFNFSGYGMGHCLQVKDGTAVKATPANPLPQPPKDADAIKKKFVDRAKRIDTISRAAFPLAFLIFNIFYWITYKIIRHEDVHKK
Kind of data set: cell-based. The data set is classed as cell-based. As to the method: as §1, §2

For a further data set, the target named is T3, α2β GlyR (Rattus norvegicus, UniProt P20781+P22771).
T3 construct: The cells were transfected with plasmids encoding the following proteins; expressed in transfected cells; host or cells: HEK293 (ATCC CRL-1573)
T3 sequence (P20781 23-496, one chain of several): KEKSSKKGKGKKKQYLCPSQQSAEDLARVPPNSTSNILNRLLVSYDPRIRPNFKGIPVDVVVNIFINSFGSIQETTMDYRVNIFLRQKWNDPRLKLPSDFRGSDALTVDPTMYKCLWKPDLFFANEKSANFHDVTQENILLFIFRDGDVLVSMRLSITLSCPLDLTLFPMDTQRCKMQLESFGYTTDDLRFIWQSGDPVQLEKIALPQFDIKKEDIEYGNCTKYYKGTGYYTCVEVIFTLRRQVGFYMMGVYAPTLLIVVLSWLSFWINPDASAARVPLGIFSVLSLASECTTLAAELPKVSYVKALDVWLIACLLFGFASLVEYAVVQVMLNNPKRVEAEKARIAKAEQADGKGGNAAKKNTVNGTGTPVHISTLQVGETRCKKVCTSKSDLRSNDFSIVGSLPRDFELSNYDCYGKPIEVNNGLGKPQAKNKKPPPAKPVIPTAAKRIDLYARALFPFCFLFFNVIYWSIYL
In words: cell-based. The data set is classed as cell-based. The procedure:
as §1, §2

The target of a further data set is T4, α3 GlyR (Rattus norvegicus, UniProt P24524).
T4 construct: expressed in transfected cells; host or cells: HEK293 (ATCC CRL-1573)
T4 sequence (P24524 34-464): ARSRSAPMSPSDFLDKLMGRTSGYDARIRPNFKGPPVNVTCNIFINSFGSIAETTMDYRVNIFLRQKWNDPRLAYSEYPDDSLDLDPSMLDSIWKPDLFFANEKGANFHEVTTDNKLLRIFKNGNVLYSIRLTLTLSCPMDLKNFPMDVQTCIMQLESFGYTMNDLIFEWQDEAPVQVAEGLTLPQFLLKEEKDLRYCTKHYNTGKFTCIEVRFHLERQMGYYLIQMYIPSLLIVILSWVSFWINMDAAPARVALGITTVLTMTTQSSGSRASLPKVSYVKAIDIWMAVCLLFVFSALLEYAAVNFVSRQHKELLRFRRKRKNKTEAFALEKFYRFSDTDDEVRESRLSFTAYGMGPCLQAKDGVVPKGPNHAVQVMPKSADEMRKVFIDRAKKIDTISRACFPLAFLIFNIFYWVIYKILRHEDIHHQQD
Kind of data set: cell-based. The data set is classed as cell-based. As to the method: as §1, §2

In a further data set the target is T5, α1β GlyR (Rattus norvegicus, UniProt P07727+P20781).
T5 construct: The cells were transfected with plasmids encoding the following proteins; expressed in transfected cells; host or cells: HEK293 (ATCC CRL-1573)
T5 sequence (P20781 23-496, one chain of several): as the sequence (P20781 23-496, one chain of several) above
Kind of data set: cell-based. The procedure:
as §1, §2

The next data set addresses T6, α3β GlyR (Rattus norvegicus, UniProt P20781+P24524).
T6 construct: The cells were transfected with plasmids encoding the following proteins; expressed in transfected cells; host or cells: HEK293 (ATCC CRL-1573)
Kind of data set: cell-based. The format is cell-based. As to the method:
as §1
as §2, with “The” for “The inhibition constant (Ki) was calculated using the Cheng–Prusoff equation (Ki = IC50/((2 + ([Agonist]/EC50)^nH)^1/nH − 1). The”

Another data set addresses T7, α1β2γ2 GABAARs (Rattus norvegicus, UniProt P62813+P63138).
T7 construct: The cells were transfected with plasmids encoding the following proteins; expressed in transfected cells; host or cells: HEK293 (ATCC CRL-1573)
The data set is classed as cell-based. To be noted: 50 μM alkaloid; 1 μM GABA. The procedure: as §1
as §2, with “The” for “The inhibition constant (Ki) was calculated using the Cheng–Prusoff equation (Ki = IC50/((2 + ([Agonist]/EC50)^nH)^1/nH − 1). The”

The conditions of data set [1]: in vivo studies; cited from earlier work.
The mark [2] stands for this setting: percentage change of glycine-evoked current.

T6 sequence (P20781 23-496, one chain of several): as the sequence (P20781 23-496, one chain of several) above
T7 sequence (P62813 28-455): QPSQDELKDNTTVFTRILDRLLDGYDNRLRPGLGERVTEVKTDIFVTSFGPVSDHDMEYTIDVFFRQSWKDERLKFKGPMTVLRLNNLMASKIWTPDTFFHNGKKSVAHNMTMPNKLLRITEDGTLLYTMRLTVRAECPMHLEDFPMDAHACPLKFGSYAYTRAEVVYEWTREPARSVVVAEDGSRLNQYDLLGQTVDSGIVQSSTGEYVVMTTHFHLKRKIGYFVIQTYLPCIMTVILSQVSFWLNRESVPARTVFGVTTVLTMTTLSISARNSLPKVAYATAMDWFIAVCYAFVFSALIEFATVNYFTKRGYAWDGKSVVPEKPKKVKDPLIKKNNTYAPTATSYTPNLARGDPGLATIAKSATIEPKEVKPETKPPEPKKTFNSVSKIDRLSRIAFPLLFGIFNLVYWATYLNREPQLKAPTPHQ
T7 sequence (P63138 26-474): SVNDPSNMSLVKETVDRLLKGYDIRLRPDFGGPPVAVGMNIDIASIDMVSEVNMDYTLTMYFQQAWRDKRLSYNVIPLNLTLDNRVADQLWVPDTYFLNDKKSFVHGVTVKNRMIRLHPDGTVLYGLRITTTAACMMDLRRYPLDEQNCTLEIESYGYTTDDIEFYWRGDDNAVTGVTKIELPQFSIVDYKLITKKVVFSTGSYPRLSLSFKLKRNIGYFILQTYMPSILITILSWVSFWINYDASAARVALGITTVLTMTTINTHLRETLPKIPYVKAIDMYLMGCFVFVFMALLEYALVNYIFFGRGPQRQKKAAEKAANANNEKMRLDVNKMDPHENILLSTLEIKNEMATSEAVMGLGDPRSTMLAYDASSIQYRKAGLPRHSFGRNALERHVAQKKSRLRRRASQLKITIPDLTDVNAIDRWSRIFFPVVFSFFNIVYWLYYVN
T7 sequence (P18508 39-466 partner): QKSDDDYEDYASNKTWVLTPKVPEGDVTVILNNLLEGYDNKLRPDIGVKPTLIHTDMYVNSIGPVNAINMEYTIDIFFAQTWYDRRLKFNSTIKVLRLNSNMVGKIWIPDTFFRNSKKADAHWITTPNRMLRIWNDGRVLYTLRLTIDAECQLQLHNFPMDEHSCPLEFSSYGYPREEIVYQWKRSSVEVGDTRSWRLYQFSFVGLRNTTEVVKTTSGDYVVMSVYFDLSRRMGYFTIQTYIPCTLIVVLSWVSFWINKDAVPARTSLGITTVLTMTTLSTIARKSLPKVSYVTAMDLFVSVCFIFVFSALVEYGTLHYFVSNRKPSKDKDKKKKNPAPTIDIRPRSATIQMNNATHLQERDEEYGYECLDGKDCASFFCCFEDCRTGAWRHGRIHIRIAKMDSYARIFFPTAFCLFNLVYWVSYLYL

As to `CCC1=N[C@H]2C[C@@]3(C(=O)N(OC)c4ccccc43)[C@H]3C[C@@H]1[C@@H]2CO3` [humantenmine], the “Maximal Modulation Concentration” value was determined as 300 µM on α1 GlyR; 50 µM on α2 GlyR; 50 µM at α2β GlyR; 0.1 µM on α3 GlyR; 0.01 µM on α1β GlyR; 300 µM at α3β GlyR. Also, the “modulation of glycine-evoked current” value at α1 GlyR (300 μM of the alkaloid) is −19.2 ± 7.8%. For the same compound, at α1 GlyR (concentration range of 10 μM to 300 μM), the “modulation of α1GlyRs (in words)” value was “did not display any detectable activity; also recorded: did not significantly modulate”. The “Maximal Modulation” value on α1 GlyR (setting [2]) is −19.2 ± 7.8%; at α2 GlyR (setting [2]) it was 8.7 ± 9.6%; at α2β GlyR (setting [2]), −10.3 ± 11.2%; on α3 GlyR (setting [2]), −20.2 ± 10.7%; at α1β GlyR (setting [2]), −7.33 ± 10.8%; at α3β GlyR (setting [2]), −15.6 ± 3.8%. Also, the “modulation of GABAARs (in words)” value on α1β2γ2 GABAARs is recorded as “did not elicit any detectable alterations; also recorded: insensitive”. The LD50 entry in data set [1] is given as “lower than 0.2 mg/kg”.
